From ChEMBL document CHEMBL3997778, “β-Dihydroagarofuran-Type Sesquiterpenes from the Seeds of Celastrus monospermus and Their Lifespan-Extending Effects on the Nematode Caenorhabditis elegans” (2016)

The molecules below were run on Caenorhabditis elegans (assay: Increase in life span of Caenorhabditis elegans Bristol N2 at late L4 larval stage at 50 uM in presence of 5-fluorodesoxyuridine relative to control).
Type: functional

Question: Which ILS at 50 µM does the source give for CC(=O)O[C@@H]1[C@H]2C[C@H](OC(=O)c3ccccc3)[C@]3(C)[C@@H](OC(C)=O)[C@H](OC(C)=O)C[C@@H](C)[C@@]13OC2(C)C here?
Answer: The ILS at 50 µM was 14%.

Question: For CC(=O)O[C@@H]1[C@@H]2[C@@H](OC(C)=O)[C@]3(OC2(C)C)[C@H](C)CC(=O)[C@H](OC(C)=O)[C@@]3(C)[C@@H]1OC(=O)c1ccccc1, which ILS at 50 µM is on record?
Answer: Its ILS at 50 µM is 37%.

Question: With CC(=O)O[C@@H]1[C@@H]2[C@@H](OC(C)=O)[C@]3(OC2(C)C)[C@H](C)CC[C@H](O)[C@@]3(C)[C@@H]1OC(=O)c1ccccc1 as the molecule, how does the ILS at 50 µM read?
Answer: Its ILS at 50 µM is 16%.

Question: How did the ILS at 50 µM turn out when CC(=O)O[C@H]1[C@@H]2[C@@H](OC(=O)c3ccccc3)[C@]3(OC2(C)C)[C@H](C)C[C@@H](OC(C)=O)[C@H](OC(C)=O)[C@@]3(C)[C@H]1OC(=O)c1ccccc1 was run?
Answer: The ILS at 50 µM was 28%.

Question: For CC(=O)O[C@@H]1[C@@H]2[C@@H](OC(C)=O)[C@]3(OC2(C)C)[C@H](C)C[C@H](OC(=O)/C=C/c2ccccc2)[C@H](OC(C)=O)[C@@]3(C)[C@@H]1OC(=O)c1ccccc1, which ILS at 50 µM is on record?
Answer: The ILS at 50 µM was 15%.

Question: With CC(=O)O[C@H]1[C@@H]2C[C@]3(OC2(C)C)[C@H](C)C[C@H](OC(C)=O)[C@@H](OC(C)=O)[C@@]3(C)[C@H]1OC(=O)c1ccccc1 as the molecule, how does the ILS at 50 µM read?
Answer: Its ILS at 50 µM is 12%.

Question: Which ILS at 50 µM does the source give for CC(=O)O[C@H]1[C@@H]2[C@@H](OC(C)=O)[C@]3(OC2(C)C)[C@H](C)C[C@@H](OC(C)=O)[C@H](OC(C)=O)[C@@]3(C)[C@H]1OC(=O)c1ccccc1 here?
Answer: Its ILS at 50 µM is 15%.

Question: Which ILS at 50 µM does the source give for CC(=O)OC[C@]12[C@@H](OC(=O)c3ccccc3)[C@@H](OC(C)=O)[C@@H]3[C@@H](OC(C)=O)[C@]1(OC3(C)C)[C@H](C)C[C@H](OC(C)=O)[C@@H]2OC(C)=O here?
Answer: The ILS at 50 µM was 16%.

Question: For CC(=O)O[C@@H]1[C@@H]2[C@@H](OC(C)=O)[C@]3(OC2(C)C)[C@H](C)C[C@@H](OC(C)=O)[C@H](OC(C)=O)[C@@]3(C)[C@@H]1OC(=O)c1ccccc1, which ILS at 50 µM is on record?
Answer: The ILS at 50 µM was 17%.

The molecules below were run on Caenorhabditis elegans (assay: Increase in life span of Caenorhabditis elegans Bristol N2 at late L4 larval stage at 100 uM in presence of 5-fluorodesoxyuridine relative to control).
Type: functional

Question: How did the ILS at 100 µM turn out when CO[C@H]1C[C@@H]2CC[C@@H](C)[C@@](O)(O2)C(=O)C(=O)N2CCCC[C@H]2C(=O)O[C@H]([C@H](C)C[C@@H]2CC[C@@H](O)[C@H](OC)C2)CC(=O)[C@H](C)/C=C(\C)[C@@H](O)[C@@H](OC)C(=O)[C@H](C)C[C@H](C)/C=C/C=C/C=C/1C [SIROLIMUS] was run?
Answer: The ILS at 100 µM was 38%.
